The values below come from US10494378B2, “Fused ring pyrimidine compound, intermediate, and preparation method, composition and use thereof” (GUANGZHOU MAXINOVEL PHARMACEUTICALS CO., LTD., priority 2015, dated 2019).

What all share (assay type): biochemical
The target in assay [1] is T1, FLT3-ITD kinase (Homo sapiens, UniProt P36888).
T1 sequence (P36888 1-993): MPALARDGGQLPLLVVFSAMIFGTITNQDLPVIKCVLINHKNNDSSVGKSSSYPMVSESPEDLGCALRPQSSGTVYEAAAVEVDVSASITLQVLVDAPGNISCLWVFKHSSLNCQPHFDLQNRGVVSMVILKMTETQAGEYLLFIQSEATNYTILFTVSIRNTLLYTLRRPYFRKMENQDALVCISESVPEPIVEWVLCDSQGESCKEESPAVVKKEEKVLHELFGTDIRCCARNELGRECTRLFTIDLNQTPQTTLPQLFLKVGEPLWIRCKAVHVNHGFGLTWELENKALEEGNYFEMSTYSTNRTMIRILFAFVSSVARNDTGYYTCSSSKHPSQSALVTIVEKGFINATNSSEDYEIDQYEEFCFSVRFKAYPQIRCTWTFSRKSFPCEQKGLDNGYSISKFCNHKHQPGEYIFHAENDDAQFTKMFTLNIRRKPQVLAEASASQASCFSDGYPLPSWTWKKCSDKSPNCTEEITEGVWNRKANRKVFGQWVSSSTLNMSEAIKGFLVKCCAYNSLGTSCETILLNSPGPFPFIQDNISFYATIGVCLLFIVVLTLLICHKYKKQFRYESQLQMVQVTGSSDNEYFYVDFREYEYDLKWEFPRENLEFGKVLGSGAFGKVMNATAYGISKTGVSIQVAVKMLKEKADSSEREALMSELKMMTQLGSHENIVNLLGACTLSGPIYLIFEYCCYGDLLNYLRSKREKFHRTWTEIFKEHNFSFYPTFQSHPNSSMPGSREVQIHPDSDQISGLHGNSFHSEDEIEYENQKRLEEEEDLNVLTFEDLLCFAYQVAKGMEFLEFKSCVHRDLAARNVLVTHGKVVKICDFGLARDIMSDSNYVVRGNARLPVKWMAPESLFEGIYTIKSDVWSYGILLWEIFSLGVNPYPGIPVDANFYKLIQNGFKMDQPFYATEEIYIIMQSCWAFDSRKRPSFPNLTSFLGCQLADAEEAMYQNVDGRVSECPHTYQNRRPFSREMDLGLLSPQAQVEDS
As to the kind of experiment: IC50 evaluation assay of FLT3-ITD kinase inhibition (Caliper). The note with it: 28° C.; average of two tests; read-out: IC50 (nM) inhibiting FLT3-ITD kinase. How it is done: (§1) 1. The compound was dissolved in 100% DMSO, diluted into solutions with appropriate concentration gradients with water according to experimental requirement, and added to a 96-well plate.
(§2) 2. FLT3 kinase (Carna, Cat. No. 08-154, Lot. No. 07CBS-2350), FLT3-ITD kinase (Invitrogen, Cat. No. PV6191, Lot. No. 1753453) and FLT3-D835Y kinase (Invitrogen, Cat. No. PR7450A, Lot. No. 1629729C) were diluted to the optimum concentration with the following buffer solution: 50 mM HEPES, pH 7.5, 0.0015% Brij-35, 10 mM MgCl2, 2 mM DTT. Transfer to the 96-well plate and incubate with the compound at 28° C. for a period of time.
(§3) 3. The buffer solution (100 mM HEPES, pH 7.5, 0.0015% Brij-35, 0.2% Coating Reagent and […]) was added to terminate the reaction.
(§4) 4. The conversion rate was read with Caliper Reader. The inhibition rate was calculated as the average of two tests.

The target in assay [2] is T2, FLT3-D835Y kinase (Homo sapiens, UniProt P36888, D835Y).
T2 construct: purchased Invitrogen PR7450A
T2 sequence (P36888 27-993 D835Y): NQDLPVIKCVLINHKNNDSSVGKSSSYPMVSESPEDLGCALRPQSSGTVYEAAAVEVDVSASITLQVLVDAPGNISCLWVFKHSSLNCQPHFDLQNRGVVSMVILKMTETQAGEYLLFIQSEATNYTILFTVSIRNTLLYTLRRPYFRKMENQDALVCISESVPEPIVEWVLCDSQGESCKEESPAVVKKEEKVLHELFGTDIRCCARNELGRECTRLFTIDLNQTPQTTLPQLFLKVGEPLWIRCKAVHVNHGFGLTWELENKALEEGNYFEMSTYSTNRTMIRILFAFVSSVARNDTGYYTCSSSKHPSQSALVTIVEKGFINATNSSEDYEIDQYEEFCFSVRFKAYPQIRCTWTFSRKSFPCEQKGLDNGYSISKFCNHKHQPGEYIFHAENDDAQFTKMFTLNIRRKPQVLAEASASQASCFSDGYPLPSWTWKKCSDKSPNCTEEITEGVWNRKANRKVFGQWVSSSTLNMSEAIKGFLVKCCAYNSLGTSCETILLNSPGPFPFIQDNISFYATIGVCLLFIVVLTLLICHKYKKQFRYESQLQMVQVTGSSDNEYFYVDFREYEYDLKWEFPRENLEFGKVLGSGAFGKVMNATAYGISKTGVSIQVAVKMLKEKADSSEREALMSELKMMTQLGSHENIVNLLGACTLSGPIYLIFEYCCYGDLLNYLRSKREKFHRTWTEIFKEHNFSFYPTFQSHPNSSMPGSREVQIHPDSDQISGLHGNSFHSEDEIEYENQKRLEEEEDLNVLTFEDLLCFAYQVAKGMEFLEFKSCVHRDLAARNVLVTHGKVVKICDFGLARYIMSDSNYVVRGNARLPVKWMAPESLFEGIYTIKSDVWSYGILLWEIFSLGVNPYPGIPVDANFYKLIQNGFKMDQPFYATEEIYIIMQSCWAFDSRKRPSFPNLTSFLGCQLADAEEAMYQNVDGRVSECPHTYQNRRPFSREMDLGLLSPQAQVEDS
The assay is described as follows: IC50 evaluation assay of FLT3-D835Y kinase inhibition (Caliper). The note with it: 28° C.; average of two tests; read-out: IC50 (nM) inhibiting FLT3-D835Y kinase. The procedure:
as §1, §2, §3, §4

Assay [3] has as its target T3, FGFR 3 (Homo sapiens, UniProt P22607).
T3 construct: purchased Carna 08-135
The assay is described as follows: IC50 evaluation assay of FGFR3 kinase inhibition (Caliper). The note with it: 28° C.; average of two tests; read-out: IC50 (nM) inhibiting FGFR 3 kinase.

T3 sequence (P22607 23-806): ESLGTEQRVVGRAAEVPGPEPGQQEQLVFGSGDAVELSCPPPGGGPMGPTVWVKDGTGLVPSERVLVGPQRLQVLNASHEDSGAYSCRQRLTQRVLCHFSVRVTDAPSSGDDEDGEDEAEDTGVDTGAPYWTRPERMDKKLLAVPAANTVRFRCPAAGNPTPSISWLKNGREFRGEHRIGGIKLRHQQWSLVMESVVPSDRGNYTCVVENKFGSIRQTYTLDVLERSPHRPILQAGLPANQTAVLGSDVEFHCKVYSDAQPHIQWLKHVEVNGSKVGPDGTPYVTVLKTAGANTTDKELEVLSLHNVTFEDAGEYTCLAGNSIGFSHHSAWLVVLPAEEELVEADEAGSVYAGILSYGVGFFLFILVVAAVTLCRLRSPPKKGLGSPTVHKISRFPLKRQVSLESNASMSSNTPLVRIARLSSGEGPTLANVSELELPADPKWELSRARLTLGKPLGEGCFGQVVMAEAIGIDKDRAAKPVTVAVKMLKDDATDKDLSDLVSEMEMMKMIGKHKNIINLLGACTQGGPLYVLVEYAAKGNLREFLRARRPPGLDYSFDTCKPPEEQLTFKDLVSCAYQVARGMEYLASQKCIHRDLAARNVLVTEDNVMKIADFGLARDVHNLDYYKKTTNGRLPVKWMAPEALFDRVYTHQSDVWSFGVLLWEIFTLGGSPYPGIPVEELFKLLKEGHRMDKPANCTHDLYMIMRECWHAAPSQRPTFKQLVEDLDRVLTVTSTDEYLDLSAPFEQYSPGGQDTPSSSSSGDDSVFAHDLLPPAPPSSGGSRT

The term IC50 denotes the concentration needed to halve the response being measured. Regarding `COc1cc(F)ccc1-c1c(C)sc2cnc(Nc3cnn(C4CCNCC4)c3)nc12` [Compound 31, N-[7-(4-fluoro-2-methoxyphenyl)-6-methylthieno[3,2-d]pyrimidinyl-2-yl]-1-(piperidinyl-4-yl)-1H-pyrazol-4-amine], the IC50 in assay [1] came out at 0.34 nM; in assay [2], 0.2 nM; in assay [3] it was 16 nM.

For the compound `COc1cc(F)ccc1-c1c(C)sc2cnc(Nc3cnn(C4CCN(CCO)CC4)c3)nc12` [Compound 34, 2-[4-(4-{[7-(4-fluoro-2-methoxyphenyl)-6-methylthieno[3,2-d]pyrimidinyl-2-yl]amino}-1H-pyrazol-1-yl)-piperidinyl-1-yl]-1-ethanol], the values for the IC50 in assay [1], in assay [2] and in assay [3] were 0.33 nM, 0.23 nM and 15 nM, respectively.
